Earlier results as cited in patent publication US20200281963A1, “HYDROGEN MOLECULE-CONTAINING PROPHYLACTIC OR THERAPEUTIC AGENT FOR OXIDATIVE DAMAGE IN INTRAOCULAR SURGERIES” (priority 2016, published 2020).

amount of hydrogen molecules that can be dissolved (in 1 L of water at 25° C. at 1 atm): 17.5 mL
amount of hydrogen molecules that can be dissolved (concentration) (water at 25° C. at 1 atm): approximately 0.8 mM
SMILES: [HH] [hydrogen molecules]
